Experimental data published in US9028845B2, “Chimeric immunomodulatory compounds and methods of using the same-IV” (Dynavax Technologies Corporation, priority 2001, dated 2015).

Key:
mouse lung = experiment: Induction of immune-associated genes in the mouse lung after intranasal treatment (quantitative PCR); format: in vivo, BALB/c mice; settings: 20 ug intranasal, 6 hrs; vs P-7 treated mice
Protocol: The genes evaluated included genes encoding cytokines, chemokines, cell surface molecules, transcription factors, metalloproteases, and other molecules. The study was performed at Northview Pacific Laboratories (Hercules, Calif.) with 6-8 week old female BALB/c mice from Jackson Labs (Bar Harbor, Me.). […] Therefore, at 6 hrs the lungs were harvested and snap-frozen in liquid nitrogen and stored at −80° C. for later use. Total RNA was isolated using RNeasy mini kits (Qiagen Inc., Valencia, Calif.). The RNA samples were DNAse-treated (Roche Diagnostics, Mannheim, Germany) and converted into cDNA using Superscript II Rnase H-Reverse Transcriptase (Invitrogen, Rockville Md.) as described in Scheerens et al., 2001, Eur. J. of Immunology 31:1465-74. The cDNA samples were pooled per group and in each pooled sample the expression of mRNA of 75 genes was measured using real-time quantitative PCR (ABI Prism 5700, Perkin Elmer Applied Biosystems) and syber green (Qiagen Inc.). In addition to the genes of interest, in each sample the mRNA expression of a housekeeping gene was measured (HPRT or ubiquitin). In order to correct for the amount of RNA in each sample, all data were calculated relative to the expression of the housekeeping gene.

CD19+ B cells = experiment: Human B cell proliferation assay (3H-thymidine incorporation); settings: 2 μg/ml
Protocol: Purified human B cells from 2 donors were stimulated with 5 μg/ml P-6 or CIC for 96 h. Proliferation was assessed by ^3H-thymidine incorporation.
A CIC is considered to induce “little” human B cell proliferation if B cell proliferation in the presence of the CIC is between greater than 15 to about 30% of P-6.
Human PBMCs were isolated from heparanized blood from two normal subjects. Some PBMCs were held in reserve while the remainder was incubated with CD19+ MACS beads (Miltenyi Biotec). These cells were then passed through a magnet, separating the CD19+ B cells through positive selection. […] B cells were then cultured at 1×10^5/200 μl/well in 96-well round-bottomed plates. In some cases, PBMCs were also cultured, but at 2×10^5/200 μl/well. Cells were stimulated in triplicate with 2 μg/ml polynucleotide or CIC. The culture period was 48 hours at 37° C. At the end of the culture period, the plates were pulsed with ^3H-thymidine, 1 μCi/well, and incubated for an additional 8 hours. Then the plates were harvested using standard liquid scintillation techniques and data was collected in counts per minutes (cpm).

PBMCs = experiment: Human PBMC proliferation assay (3H-thymidine incorporation); format: cell-based; settings: Experiment A; for mean cpm: 2 μg/ml
[1] = B cells, Donor 146, Experiment A
[2] = B cells, Donor 147, Experiment A
[3] = B cells, donor 194, Experiment B

## 5′-TGACTGTGAACGTTCGAGATGA-3′ (SEQ ID NO: 2) [Compound P-6, reference compound]
Mouse lung
  mRNA expression of immune-associated genes in the lung, in words: potently induce the expression of a variety of genes
CD19+ B cells; 48 h plus 8 h 3H-thymidine pulse
  B cell proliferation, in words: cause B cells to proliferate
CD19+ B cells; [1]
  cpm1: 29280 cpm
  cpm2: 33430 cpm
  cpm3: 30056 cpm
CD19+ B cells; B cells, Donor 146 mean, Experiment A
  mean cpm: 30922 cpm
CD19+ B cells; [2]
  cpm1: 35729 cpm
  cpm2: 18032 cpm
  cpm3: 21166 cpm
CD19+ B cells; B cells, Donor 147 mean, Experiment A
  mean cpm: 24976 cpm
CD19+ B cells; [3]
  cpm1: 13678 cpm
  cpm2: 12732 cpm
  cpm3: 9003 cpm
CD19+ B cells; B cells, donor 194 mean, Experiment B
  mean cpm: 11804 cpm
CD19+ B cells; B cells, mean of Donors 146 and 147, Experiment A
  mean of both: 27949 cpm
PBMCs; Donor 146, 2 μg/ml
  cpm1: 22067 cpm
  cpm2: 23740 cpm
  cpm3: 28099 cpm
PBMCs; Donor 146 mean
  mean cpm: 24635 cpm
PBMCs; Donor 147, 2 μg/ml
  cpm1: 26436 cpm
  cpm2: 23830 cpm
  cpm3: 17531 cpm
PBMCs; Donor 147 mean
  mean cpm: 22599 cpm
PBMCs; mean of Donors 146 and 147, 2 μg/ml
  mean of both: 23617 cpm
